Our source for the Ki values is ChEMBL document CHEMBL1154193, “Carbonic anhydrase II-induced selection of inhibitors from a dynamic combinatorial library of Schiff's bases” (Bioorg Med Chem Lett, 2009).

pKi: −log10 of the molar value.

For orientation: pKi means the negative decadic logarithm of the Ki, by convention in mol/L. Higher therefore signals a low Ki.

This assay addresses Carbonic anhydrase 2 (Homo sapiens, UniProt P00918).

Description: Inhibition of human carbonic anhydrase 2-catalyzed CO2 hydration by stopped flow technique

Take `NS(=O)(=O)c1ccc(/N=C/c2ccc(O)cc2)cc1`: the pKi was 6.15.
